One block for each compound: values may come before it.
What was measured:
IDO1 [1] = settings: cited from earlier work
IDO1 [2] = settings: cited from earlier work; remark: listed apart in the source
[3] = cited from earlier work
[4] = molecular target: T1, purified human IDO1 enzyme (Homo sapiens, UniProt P14902); assay: IDO1 inhibition assay by the spectrometric method (pDMAB); assay type: biochemical
T1 construct: made in house; host or cells: Escherichia coli M15 (pQE30 vector with pREP4 plasmid)
Protocol: Both IDO1 and TDO inhibition assays were performed according to the reported procedures[26]–[30],[50],[51]. […] In the assay system, the minimum and maximum amount of DMSO was 0.02% and 2%, respectively. […] The concentration of the inhibitors was varied from 100 µM to 32 nM by serial dilution technique. Then, the reaction was quenched with 100 µL of 30% (w/v) trichloroacetic acid and was incubated for further 15 minutes at 65 °C. After that, 2% (w/v) pDMAB was used to quantify the amount of kynurenine formation. The absorbance of the reaction mixture was recorded by UV-Vis spectrophotometer at 480 nm.

TDO enzyme = molecular target: T2, TDO enzyme (Homo sapiens, UniProt P48775); assay: HPLC based TDO inhibition assay; assay type: biochemical
T2 construct: 6xHis (N); made in house; host or cells: Escherichia coli BL21 (DE3) (pET 28a vector)
Protocol: (§1) HPLC based IDO1, and TDO inhibition assays were performed according to the earlier reported procedure[19],[27]–[30]. The reaction mixture (250 µL) contained KPB (100 mM, pH 6.5 for IDO1 and 50 mM, pH 8.0 for TDO), sodium ascorbate (20 mM), methylene blue (10 µM), catalase (240 nM, from bovine liver, Sigma), L-Trp (150 µM), purified enzyme (40 nM for IDO1 and 25 nM for TDO), DMSO (0.05%, v/v), Triton-X 100 (0.01%, v/v) and inhibitors. The concentration of the compound was varied from 100 µM to 32 nM by serial dilution. The mixture was incubated at 37 °C for 1 hour in the absence and presence of the synthesized compounds. The reaction was then quenched using 50 µL of 30% (w/v) trichloroacetic acid and incubated at 65 °C for additional 15 minutes to allow complete hydrolysis of N-formylkynurenine to kynurenine. After that, the mixture was centrifuged at 10,000 rpm for 10 minutes, and 100 µL of clear solution was transferred to another tube for HPLC analysis. Then, 20 µL of the reaction mixture was then injected through Ascentis® express C18, 2.7 µm HPLC column with a flow rate of 0.5 mL/minute of the mobile phase containing 50% sodium citrate buffer (40 mM, pH 2.25) and 50% methanol (v/v) with 400 µM SDS. The area under the curve at 365 nm chromatogram corresponding to the kynurenine formation was recorded, and % of inhibition was calculated using standard curve prepared with pure kynurenine (from Sigma) under similar experimental conditions.

[5] = molecular target: T3, purified human TDO enzyme (Homo sapiens, UniProt P48775); assay: TDO inhibition assay by the spectrometric method; assay type: biochemical; settings: spectrophotometric
T3 construct: 6xHis (N); made in house; host or cells: Escherichia coli BL21 (DE3) (pET 28a vector)
Protocol: Both IDO1 and TDO inhibition assays were performed according to the reported procedures[26]–[30],[50],[51]. The solubility of the compounds in water was either moderate or poor. […] In the assay system, the minimum and maximum amount of DMSO was 0.02% and 2%, respectively. The standard reaction mixture (500 μL) containing KPB (100 mM, pH 6.5 for IDO1 enzyme and 50 mM, pH 8.0 for TDO enzyme), sodium ascorbate (20 mM), methylene blue (10 µM), catalase (240 nM, from bovine liver), L-Trp (150 µM), purified enzyme (40 nM for IDO1 and 25 nM for TDO), DMSO (0.05%, v/v), Triton-X 100 (0.01%, v/v) and inhibitors was incubated at 37 °C for 1 hour. The concentration of the inhibitors was varied from 100 µM to 32 nM by serial dilution technique. Then, the reaction was quenched with 100 µL of 30% (w/v) trichloroacetic acid and was incubated for further 15 minutes at 65 °C. After that, 2% (w/v) pDMAB was used to quantify the amount of kynurenine formation. The absorbance of the reaction mixture was recorded by UV-Vis spectrophotometer at 480 nm. The Km = 59.76 µM and Kcat = 6.18 sec^−1.

IDO1 [6] = molecular target: T4, IDO1 (Homo sapiens, UniProt P14902); assay: Cellular IDO1 activity assay in IFN-γ induced MDA-MB-231 cells; assay type: cell-based; set-up: induce the expression of the native IDO1 enzyme from its mRNA in the MDA-MB-231 cells; endogenous in cells; host or cells: MDA-MB-231 cells induced with human IFN-γ (50 ng/mL); settings: IDO1 expression induced by human IFN-γ (50 ng/mL); mean of three
Protocol: The cellular enzyme activity assay was performed according to the reported procedure with minor modifications[19],[27]–[30],[33],[54]. Briefly, MDA-MB-231 breast cancer cells were selected for this assay because of the presence of IDO1 mRNA in this cell line. First, cells were grown in DMEM/F12 complete media overnight. Then different concentration of human interferon-gamma (IFN-γ) (from 5–1000 ng/mL) was added to it and incubated for 48 hours. This treatment is reported to allow over-expression of IDO1 enzyme in MDA-MB-231 cells. […] Sterile cell-culture grade PBS was used to wash the cells by centrifugation technique. Then, the pellet was lysed in 10 mM HEPES buffer by passing through a sterile syringe. The lysate was used for standard IDO1 assay as mentioned earlier. The relative amount of N-formylkynurenine generated in the presence of the different concentration of IFN-γ was used to optimize the required concentration of IFN-γ for the IDO1 inhibition assay. […] Cells stimulated with IFN-γ alone were used as negative control, while cells stimulated with L-Trp without compound served as positive control. The cells were washed with sterile cell culture grade PBS and lysed in 10 mM HEPES buffer by sterile syringe. The lysate was used for standard IDO1 assay, as mentioned earlier, and the extent of IDO1 enzyme inhibition was determined for the selected compounds.

IDO1 [7] = molecular target: T4, IDO1; assay: Kynurenine assay by HPLC analysis, IDO1; assay type: biochemical; set-up: made in house; host or cells: Escherichia coli M15 (pQE30 vector with pREP4 plasmid)
Protocol: as §1

T3 sequence (P48775 whole entry): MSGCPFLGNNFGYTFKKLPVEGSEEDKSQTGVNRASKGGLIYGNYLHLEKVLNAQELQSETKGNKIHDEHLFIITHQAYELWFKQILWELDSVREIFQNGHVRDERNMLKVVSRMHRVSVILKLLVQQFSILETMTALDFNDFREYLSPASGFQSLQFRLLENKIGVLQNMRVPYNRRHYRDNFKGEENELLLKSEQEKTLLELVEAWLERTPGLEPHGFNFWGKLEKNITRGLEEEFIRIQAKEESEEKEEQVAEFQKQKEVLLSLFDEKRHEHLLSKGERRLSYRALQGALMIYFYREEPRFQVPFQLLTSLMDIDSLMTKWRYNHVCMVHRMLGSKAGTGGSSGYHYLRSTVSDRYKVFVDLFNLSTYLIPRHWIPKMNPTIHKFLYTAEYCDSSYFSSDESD
T2 sequence (P48775 whole entry): as above
T4 sequence (P14902 whole entry): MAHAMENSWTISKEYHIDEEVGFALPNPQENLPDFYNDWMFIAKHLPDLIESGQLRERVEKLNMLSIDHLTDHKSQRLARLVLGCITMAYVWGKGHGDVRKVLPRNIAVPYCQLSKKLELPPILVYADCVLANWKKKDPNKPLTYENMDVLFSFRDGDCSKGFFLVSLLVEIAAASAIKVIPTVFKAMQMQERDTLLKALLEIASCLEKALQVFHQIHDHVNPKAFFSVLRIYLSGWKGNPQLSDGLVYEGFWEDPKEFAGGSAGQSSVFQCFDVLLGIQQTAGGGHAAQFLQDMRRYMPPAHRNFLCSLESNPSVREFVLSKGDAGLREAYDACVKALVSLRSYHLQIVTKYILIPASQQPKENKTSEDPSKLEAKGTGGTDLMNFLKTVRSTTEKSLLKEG
T1 sequence (P14902 whole entry): as above

Structure (SMILES): Oc1ccc(Cl)cc1-c1cnn[nH]1 [MMG-0358, 4-chloro-2-(1H-1,2,3-triazol-5-yl)phenol]
IDO1 inhibitory activities, cellular assay (IDO1 [1]): nanomolar-level
IDO1 inhibitory activities, enzymatic assay (IDO1 [2]): nanomolar-level
cytotoxicity [3]: low cytotoxicity

Structure (SMILES): CCc1ccccc1Nc1cnn[nH]1 [N-(2-Ethylphenyl)-1H-1,2,3-triazol-5-amine]
cellular IDO1 inhibitory activities (IDO1 [1]): nanomolar-level

fold stronger IDO1 inhibitory activity than 1a ([4]; in comparison with lead compound 1a): 10 fold
IC50 ([4]; purified human IDO1, spectrophotometric, mean of three independent assays, read-out: hIDO1 IC50): 8.541 ± 0.084 µM
inhibition at 0.032 µM (TDO enzyme; 32 nM): 3%
inhibition at 0.16 µM (TDO enzyme; 160 nM): 4%
inhibition at 0.8 µM (TDO enzyme; 800 nM): 17%
inhibition at 4 µM (TDO enzyme; 4 µM): 22%
inhibition at 20 µM (TDO enzyme; 20 µM): 25%
inhibition at 100 µM (TDO enzyme; 100 µM): 30%
inhibition at 0.032 µM ([5]; 32 nM): 5%
inhibition at 0.16 µM ([5]; 160 nM): 7%
inhibition at 0.8 µM ([5]; 800 nM): 19%
inhibition at 4 µM ([5]; 4 µM): 23%
inhibition at 20 µM ([5]; 20 µM): 29%
inhibition at 100 µM ([5]; 100 µM): 42%
EC50 (IDO1 [6]): 1.3 ± 0.068 µM
IC50 (IDO1 [7]; HPLC based IDO1 inhibition assay): 1.19 ± 0.039 µM
inhibition at 0.032 µM (IDO1 [7]; HPLC, 32 nM): 11%
inhibition at 0.16 µM (IDO1 [7]; HPLC, 160 nM): 31%
inhibition at 0.8 µM (IDO1 [7]; HPLC, 800 nM): 36%
inhibition at 4 µM (IDO1 [7]; HPLC, 4 µM): 63%
inhibition at 20 µM (IDO1 [7]; HPLC, 20 µM): 79%
inhibition at 100 µM (IDO1 [7]; HPLC, 100 µM): 80%
Structure (SMILES): NC(=O)c1n[nH]nc1-c1ccccc1 [Compound 3a, 5-phenyl-2H-1,2,3-triazole-4-carboxamide]

Reference: PMC6895048, “4,5-Disubstituted 1,2,3-triazoles: Effective Inhibition of Indoleamine 2,3-Dioxygenase 1 Enzyme Regulates T cell Activity and Mitigates Tumor Growth” (Scientific Reports, 2019)
